# Test results reported in publication PMC5653735, “Comparison of the oxidation of carcinogenic aristolochic acid I and II by microsomal cytochromes P450 in vitro: experimental and theoretical approaches” (Monatshefte Fur Chemie, 2017).
# Target: T1, CYP3A1 (Rattus norvegicus, UniProt P04800)
# T1 construct: recombinant rat CYP3A1 in Supersomes (microsomes of baculovirus-transfected insect cells); with NADPH:CYP oxidoreductase (POR) and/or cytochrome b5
# T1 sequence (P04800 1-504): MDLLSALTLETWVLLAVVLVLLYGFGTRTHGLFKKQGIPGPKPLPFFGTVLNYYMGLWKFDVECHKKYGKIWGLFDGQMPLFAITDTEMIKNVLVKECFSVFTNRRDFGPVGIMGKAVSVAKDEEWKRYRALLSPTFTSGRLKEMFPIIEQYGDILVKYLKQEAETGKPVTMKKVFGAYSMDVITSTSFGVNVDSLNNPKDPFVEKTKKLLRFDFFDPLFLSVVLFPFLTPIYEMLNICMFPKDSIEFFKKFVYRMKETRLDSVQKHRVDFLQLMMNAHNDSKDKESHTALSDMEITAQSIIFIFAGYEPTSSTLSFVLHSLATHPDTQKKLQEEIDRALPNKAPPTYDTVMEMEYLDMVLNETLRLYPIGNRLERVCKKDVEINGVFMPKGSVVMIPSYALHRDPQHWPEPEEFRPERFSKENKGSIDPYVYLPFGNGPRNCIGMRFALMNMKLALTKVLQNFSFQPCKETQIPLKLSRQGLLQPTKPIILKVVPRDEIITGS
# Assay: HPLC of AAIa formed from AAII by recombinant CYP in insect-cell microsomes
# Type: cell-based
structure (smiles),measurement,value
"O=C(O)c1cc2c(c3c1c([N+](=O)[O-])cc1ccccc13)OCO2 [AAII, 6-nitrophenanthro[3,4-d]-1,3-dioxole-5-carboxylic acid]",HPLC of AAIa formed from AAII by recombinant CYP in insect-cell microsomes,"only rat CYP of the 3A subfamily, CYP3A1, but not CYP3A2, was capable of oxidizing AAII to AAIa"
